From PubChem BioAssay AID192 (DTP/NCI, 2004)
Where “and” joins values, the source holds several entries; their conditions need not be identical. Identical values can stand only once. Toxic doses and inconclusive results are not listed. The calls were made as follows: active = survival T/C of 150% or more; inactive = T/C below 125% in these data.

System: BDF1 mice, B16 melanoma ip, median survival T/C
Experiment: NCI In Vivo Anticancer Drug Screen. Data for tumor model B16 Melanoma (intraperitoneal) in B6D2F1 (BDF1) mice
Details: endpoint: median survival time, higher = longer survival
Summary of the method: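 Values are ratios of treated (T) to vehicle-control (C) measurements of survival or tumor size in tumor-bearing mice.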

[1] = dose: 6.25 mg/kg/injection, schedule: Q01DX009 (ip), vehicle: saline
[2] = dose: 12.5 mg/kg/injection, schedule: Q01DX009 (ip), vehicle: saline
[3] = dose: 25.0 mg/kg/injection, schedule: Q01DX009 (ip), vehicle: saline
[4] = dose: 50.0 mg/kg/injection, schedule: Q01DX009 (ip), vehicle: saline

Measured: T/C

CSc1ncnc2nc[nH]c12
inactive: dose: 50.0 mg/kg/injection, schedule: Q01DX009 (ip), vehicle: Klucel (hydroxypropylcellulose) (HPC) 104 % of control | dose: 100.0 mg/kg/injection, schedule: Q01DX009 (ip), vehicle: Klucel (hydroxypropylcellulose) (HPC) 100 % of control | dose: 200.0 mg/kg/injection, schedule: Q01DX009 (ip), vehicle: Klucel (hydroxypropylcellulose) (HPC) 102 % of control | dose: 400.0 mg/kg/injection, schedule: Q01DX009 (ip), vehicle: Klucel (hydroxypropylcellulose) (HPC) 88 % of control

CC1(C)COCN1COCCOCN1COCC1(C)C
inactive: [1] 102 % of control | [2] 103 % of control | [3] 113 % of control | [4] 118 % of control | dose: 100.0 mg/kg/injection, schedule: Q01DX009 (ip), vehicle: saline 120 % of control

COc1cc2c(Cc3ccc(OC)c(OC)c3)[n+](Cc3ccccc3)ccc2cc1NCc1ccccc1
inactive: dose: 0.78 mg/kg/injection, schedule: Q01DX009 (ip), vehicle: saline with Tween-80 105 % of control | dose: 1.56 mg/kg/injection, schedule: Q01DX009 (ip), vehicle: saline with Tween-80 106 % of control | dose: 3.12 mg/kg/injection, schedule: Q01DX009 (ip), vehicle: saline with Tween-80 110 % of control | dose: 6.25 mg/kg/injection, schedule: Q01DX009 (ip), vehicle: saline with Tween-80 110 % of control

O=C1C(=O)c2ccccc2C(O)=C1CC=C(Cl)Cl
inactive: dose: 6.2 mg/kg/injection, schedule: Q01DX009 (ip), vehicle: water 93 % of control | [2] 100 % of control | dose: 12.5 mg/kg/injection, schedule: Q01DX009 (ip), vehicle: water 93 % of control | [3] 102 % of control | dose: 25.0 mg/kg/injection, schedule: Q01DX009 (ip), vehicle: water 100 % of control | dose: 25.0 mg/kg/injection, schedule: Q01DX009 (oral), vehicle: water 103 % of control and 106 % of control | [4] 100 % of control | dose: 50.0 mg/kg/injection, schedule: Q01DX009 (ip), vehicle: water 100 % of control | dose: 50.0 mg/kg/injection, schedule: Q01DX009 (oral), vehicle: saline 105 % of control | dose: 50.0 mg/kg/injection, schedule: Q01DX009 (oral), vehicle: water 106 % of control | dose: 75.0 mg/kg/injection, schedule: Q01DX009 (oral), vehicle: water 110 % of control | dose: 100.0 mg/kg/injection, schedule: Q01DX009 (oral), vehicle: saline 116 % of control | dose: 100.0 mg/kg/injection, schedule: Q01DX009 (oral), vehicle: water 106 % of control and 113 % of control | dose: 200.0 mg/kg/injection, schedule: Q01DX009 (oral), vehicle: water 106 % of control

O=Cc1c(O)c2ccccc2[nH]c1=O
inactive: dose: 25.0 mg/kg/injection, schedule: Q01DX009 (ip), vehicle: saline with Tween-80 106 % of control and 120 % of control | dose: 50.0 mg/kg/injection, schedule: Q01DX009 (ip), vehicle: saline with Tween-80 102 % of control and 107 % of control | dose: 100.0 mg/kg/injection, schedule: Q01DX009 (ip), vehicle: saline with Tween-80 122 % of control

CSc1ccc2c(c1)N(CCCN(C)C)c1ccccc1S2
inactive: dose: 3.12 mg/kg/injection, schedule: Q01DX009 (ip), vehicle: saline 100 % of control | [1] 107 % of control and 112 % of control | [2] 97 % of control and 124 % of control | [3] 100 % of control and 124 % of control

CCCCCCCCCCCCCCCC(=O)O[C@@]12C[C@@H](C)[C@@]3(O)[C@@H](C=C(CO)C[C@]4(O)C(=O)C(C)=C[C@@H]34)[C@@H]1C2(C)C
inactive: dose: 0.03 mg/kg/injection, schedule: Q01DX009 (ip), vehicle: saline + Tween-80 + alcohol 103 % of control | dose: 0.03 mg/kg/injection, schedule: Q01DX009 (ip), vehicle: saline 94 % of control | dose: 0.06 mg/kg/injection, schedule: Q01DX009 (ip), vehicle: saline + Tween-80 + alcohol 109 % of control | dose: 0.06 mg/kg/injection, schedule: Q01DX009 (ip), vehicle: saline 99 % of control | dose: 0.12 mg/kg/injection, schedule: Q01DX009 (ip), vehicle: saline 96 % of control | dose: 0.13 mg/kg/injection, schedule: Q01DX009 (ip), vehicle: other 103 % of control | dose: 0.13 mg/kg/injection, schedule: Q01DX009 (ip), vehicle: saline + Tween-80 + alcohol 110 % of control | dose: 0.25 mg/kg/injection, schedule: Q01DX009 (ip), vehicle: saline 92 % of control | dose: 0.5 mg/kg/injection, schedule: Q01DX009 (ip), vehicle: saline 92 % of control
